Measurements taken from US20240366539A1, “METHODS FOR TREATING AUTISM SPECTRUM DISORDERS” (INSTITUT NATIONAL DE LA SANTÉ ET DE LA RECHERCHE MÉDICALE, priority 2021, published 2024).

How the values were obtained:
Oprm1^−/− mice = assay: Y-maze exploration; format: in vivo, mouse; conditions: chronic NaBr 10-500 mg/kg or bumetanide 0.5 and 2 mg/kg
Experimental: (§1) Mice were treated with vehicle (NaCl 0.9%; ip, 10 or 20 ml/kg), NaBr (Sigma-Aldrich, Saint-Quentin Fallavier, France) administered either chronically (once a day, 10, 30, 70, 125, 250 and 500 mg/kg; i.p. or per os, in a volume of 20 ml/kg—except for combination with VU0155041: […]) or acutely (250 mg/kg, 20 ml/kg), KBr (Sigma-Aldrich, Saint-Quentin Fallavier, France; 145 mg/kg; i.p., 20 ml/kg), bumetanide (R&D systems, Minneapolis, USA, 0.5 and 2 mg/kg; i.p., 20 ml/kg) or VU0155041 (Cayman Chemicals, Ann Arbor, USA, once a day, i.p., 1 mg/kg, 10 ml/kg). […] When treatment was given chronically, behavioral testing started 8 days after beginning of daily administration. Treatment was maintained for 8 to 18 consecutive days (see timelines in FIGS. 1 and 4), allowing thorough behavioral phenotyping. On testing days, or when treatment was given acutely, drugs (or vehicle) were administered 30 min before behavioral assays.
Y-maze exploration. Spontaneous alternation behavior was used to assess perseverative behavior (65-67). Each Y-maze consisted of three connected Plexiglas arms (15×15×17 cm) covered with distinct wall patterns (15 lx). Floors were covered with lightly sprayed fresh sawdust to limit anxiety. Each mouse was placed at the center of a maze and allowed to freely explore this environment for 5 min. The pattern of entries into each arm was quoted on video-recordings. Spontaneous alternations (SPA), i.e. successive entries into each arm forming overlapping triplet sets, alternate arm returns (AAR) and same arm returns (SAR) were scored, and the percentage of SPA, AAR and SAR was calculated as following: total/(total arm entries−2)*100.

Fmr1^−/− mice = assay: Novelty-suppressed feeding; format: in vivo, mouse; conditions: chronic NaBr 250 mg/kg once daily
Experimental: as §1
(§2) Novelty-suppressed feeding. Novelty-suppressed feeding (NSF) was measured in 24-hr food-deprived mice, isolated in a standard housing cage for 30 min before individual testing. Three pellets of ordinary lab chow were placed on a white tissue in the center of each arena, lit at 60 lx. Each mouse was placed in a corner of an arena and allowed to explore for a maximum of 15 min. Latency to feed was measured as the time necessary to bite a food pellet. Immediately after an eating event, the mouse was transferred back to home cage (free from cage-mates) and allowed to feed on lab chow for 5 min. Food consumption in the home cage was measured.
(§3) To this purpose, we evaluated the effects of chronic NaBr administration at the dose of 250 mg/kg on autism-sensitive behaviors in these lines (FIG. 3A).

Shank3^Δex13-16−/− mice = assay: Novelty-suppressed feeding; format: in vivo, mouse; conditions: Shank3Δex13-16−/− mice; chronic NaBr 250 mg/kg once daily
Experimental: as §1, §2, §3

rat mGlu4 receptor = molecular target: T1, rat mGlu4 receptor (Rattus norvegicus, UniProt P31423); assay: Calcium mobilization assay, mGlu4 signaling under glutamate stimulation; format: cell-based
T1 construct: expressed in transfected cells
Experimental: Human embryonic kidney (HEK) 293 cells were transiently transfected with rat mGlu4 receptor by electroporation together with a chimeric Gi/Gq protein to allow phospholipase activation and EAAC1, a glutamate transporter, to avoid influence of extracellular glutamate. For calcium mobilization, cells were seeded in a PLO-coated, black-walled, clear-bottomed. 96-well plate (Greiner Bio-One) at the density of 100,000 cells per well and for IPOne assay in a PLO-coated black 96-well plate (Greiner Bio-One) at the density of 50,000 cells per well. Cells were cultured in DMEM (Gibco™, Life Technologies), supplemented with 10% fetal bovine serum. Medium was changed by GlutaMAX (Gibco™, Life Technologies) to reduce extracellular glutamate concentration 3 h before experiment.
Chloride and bromide ion concentrations in the buffers used for in vitro experiments were chosen for best matching physiological conditions. It was previously shown that the total amount of halogen (chloride and bromide ions) in the cerebrospinal fluid and serum can reach 120-130 mM (69, 70) and that bromide is able to substitute up to 30% of chloride concentration (71), leading to a theoretical concentration of 91 mM chloride and 36 mM bromide. We thus chose the dose of 100 mM chloride as physiological control (complemented with gluconate NaC6H11O7 to maintain equivalent osmolarity between buffers (56)), and added or not 50 mM chloride or bromide to assess their effects in vitro. Chemicals were purchased from Sigma-Aldrich (Merck, L'Isle D'Abeau Chesnes, France). The pH of all buffers was adjusted to 7.4 before experiments. […]
Calcium mobilization assay: 24 h after transfection, cells were loaded with 1 μM calcium-sensitive fluorescent dye (Fluo-4 AM; Invitrogen, Life Technologies) diluted in fresh C1^− buffer (154.6 mM) for 1 h at 37° C. and 5% CO2. […] Ca^2+ release was determined using μCell FDSS (Hamamatsu Photonics). Fluoresence was recorded for 60 s at 480 nm excitation and 540 nm emission after 20 s record of baseline.
Data were analyzed using Prism 6 software (GraphPad Software, San Diego, CA, USA). […] Statistical differences between pEC50, ΔpEC50 and Emax were determined using a one-way analysis of variance followed by Tukey's post-test.
We measured mGlu4 signaling under glutamate stimulation in HEK293T cells transiently expressing mGlu4 receptors and Gαqi9, a Gi/Gq chimeric G-protein (57) that allows mGlu4 to activate the phosphoinositide pathway. Receptor activation was then evaluated by measuring intracellular Ca^2+ release or inositol monophosphate (IP1, FIG. 5A). […]

T1 sequence (P31423 33-912): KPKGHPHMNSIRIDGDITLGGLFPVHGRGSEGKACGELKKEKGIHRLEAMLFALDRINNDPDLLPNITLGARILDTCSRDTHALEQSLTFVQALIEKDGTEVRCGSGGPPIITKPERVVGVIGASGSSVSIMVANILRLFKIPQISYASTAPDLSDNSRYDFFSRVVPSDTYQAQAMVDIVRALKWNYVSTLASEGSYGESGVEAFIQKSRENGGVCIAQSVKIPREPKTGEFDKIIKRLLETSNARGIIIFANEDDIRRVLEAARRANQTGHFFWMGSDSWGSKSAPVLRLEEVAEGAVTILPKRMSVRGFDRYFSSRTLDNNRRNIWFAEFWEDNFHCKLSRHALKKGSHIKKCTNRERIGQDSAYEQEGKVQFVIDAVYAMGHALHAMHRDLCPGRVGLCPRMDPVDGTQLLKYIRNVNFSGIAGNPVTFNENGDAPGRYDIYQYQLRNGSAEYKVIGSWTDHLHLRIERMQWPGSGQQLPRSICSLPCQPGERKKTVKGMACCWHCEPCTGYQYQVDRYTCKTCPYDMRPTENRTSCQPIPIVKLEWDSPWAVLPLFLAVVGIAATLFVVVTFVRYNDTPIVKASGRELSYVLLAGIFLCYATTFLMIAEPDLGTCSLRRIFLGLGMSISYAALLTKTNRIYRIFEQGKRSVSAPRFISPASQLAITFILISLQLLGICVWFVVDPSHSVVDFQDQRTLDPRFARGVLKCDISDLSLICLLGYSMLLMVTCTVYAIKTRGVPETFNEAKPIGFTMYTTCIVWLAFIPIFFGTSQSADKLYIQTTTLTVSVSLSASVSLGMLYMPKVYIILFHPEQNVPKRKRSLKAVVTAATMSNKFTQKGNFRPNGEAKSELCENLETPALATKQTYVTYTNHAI

[Br-].[Na+] [NaBr, sodium bromide]
perseverative same arm returns (Oprm1^−/− mice): suppressed perseverative same arm returns from the dose of 70 mg/kg
perseverative same arm returns (Oprm1^−/− mice; listed as bromide): decreased the number of perseverative same arm returns in Oprm1 null mice to wild-type levels since the dose of 30 mg/kg
food intake (Fmr1^−/− mice): no modification in their food intake
latency to eat (Fmr1^−/− mice): reduced this latency
food intake (Shank3^Δex13-16−/− mice): had no effect on food intake
latency to eat (Shank3^Δex13-16−/− mice): normalized this latency to WT levels
increase in glutamate pEC50 (rat mGlu4 receptor; HEK293 cells, mGlu4 + Gαqi9, addition of 50 mM bromide versus physiological chloride (100 mM Cl− + 50 mM gluconate)): 0.73±0.05 log
ΔpEC50 of glutamate, bromide versus equivalent concentration of chloride (rat mGlu4 receptor; HEK293 cells, mGlu4 + Gαqi9, compared with +50 mM Cl−): 0.27±0.04
rise in maximal mGlu4-triggered calcium release (Emax) (rat mGlu4 receptor; HEK293 cells, mGlu4 + Gαqi9, glutamate, bromide versus physiological chloride): 65±9%
modulation of mGlu4 (PAM behaviour) (rat mGlu4 receptor; calcium mobilization assay, 100 mM Cl− + 50 mM Br−, broader effects than chloride ions on pEC50 and Emax): behave as PAM of mGlu4
